Legend:
Test in all cases: pIC50, kinobeads binding competition
Settings in all cases: cell material: Jurkat lysate
ULK1 = target: T1, ULK1 (UniProt O75385)
T1 sequence (whole entry): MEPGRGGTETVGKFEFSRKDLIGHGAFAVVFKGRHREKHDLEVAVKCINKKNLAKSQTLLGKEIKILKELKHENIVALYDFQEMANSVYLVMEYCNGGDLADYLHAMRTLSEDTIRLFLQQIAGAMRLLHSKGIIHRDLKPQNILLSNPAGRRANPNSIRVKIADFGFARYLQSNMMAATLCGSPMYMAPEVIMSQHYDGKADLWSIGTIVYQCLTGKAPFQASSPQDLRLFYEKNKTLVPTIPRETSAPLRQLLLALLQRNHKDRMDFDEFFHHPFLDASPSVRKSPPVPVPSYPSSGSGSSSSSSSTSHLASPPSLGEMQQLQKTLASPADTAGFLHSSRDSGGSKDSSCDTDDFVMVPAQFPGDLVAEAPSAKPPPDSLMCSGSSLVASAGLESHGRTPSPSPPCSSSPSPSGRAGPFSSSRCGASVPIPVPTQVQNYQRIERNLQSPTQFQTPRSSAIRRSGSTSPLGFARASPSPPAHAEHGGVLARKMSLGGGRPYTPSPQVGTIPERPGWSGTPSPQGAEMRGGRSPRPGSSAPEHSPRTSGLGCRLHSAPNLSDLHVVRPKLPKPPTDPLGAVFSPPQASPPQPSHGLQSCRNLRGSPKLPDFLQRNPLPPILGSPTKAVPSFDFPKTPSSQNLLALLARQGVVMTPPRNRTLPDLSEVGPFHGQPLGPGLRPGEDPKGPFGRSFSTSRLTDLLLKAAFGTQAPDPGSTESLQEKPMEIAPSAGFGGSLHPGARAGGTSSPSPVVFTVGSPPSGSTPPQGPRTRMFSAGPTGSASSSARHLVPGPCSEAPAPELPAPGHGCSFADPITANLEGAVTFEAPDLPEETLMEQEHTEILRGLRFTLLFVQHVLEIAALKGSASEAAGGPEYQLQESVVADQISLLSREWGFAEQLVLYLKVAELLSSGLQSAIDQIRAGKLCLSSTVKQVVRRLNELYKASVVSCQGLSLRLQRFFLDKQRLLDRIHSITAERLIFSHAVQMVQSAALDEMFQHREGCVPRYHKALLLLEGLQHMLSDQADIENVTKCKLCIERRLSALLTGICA

UHMK1 = target: T2, UHMK1 (UniProt Q8TAS1)
T2 sequence (whole entry): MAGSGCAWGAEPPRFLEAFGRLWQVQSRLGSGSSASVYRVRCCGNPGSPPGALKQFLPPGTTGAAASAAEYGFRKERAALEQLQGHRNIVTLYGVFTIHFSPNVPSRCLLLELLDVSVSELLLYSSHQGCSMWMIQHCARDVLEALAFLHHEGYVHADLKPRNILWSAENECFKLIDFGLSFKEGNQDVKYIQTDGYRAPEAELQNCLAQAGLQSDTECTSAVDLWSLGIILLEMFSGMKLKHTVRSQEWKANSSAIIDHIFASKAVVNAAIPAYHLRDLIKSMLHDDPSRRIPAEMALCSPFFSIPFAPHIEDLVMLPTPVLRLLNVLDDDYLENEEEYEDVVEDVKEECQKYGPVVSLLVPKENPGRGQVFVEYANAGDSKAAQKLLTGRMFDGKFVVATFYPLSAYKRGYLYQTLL

SLK = SLK (UniProt Q9H2G2)
Chain of SLK (Q9H2G2 whole entry, looked up): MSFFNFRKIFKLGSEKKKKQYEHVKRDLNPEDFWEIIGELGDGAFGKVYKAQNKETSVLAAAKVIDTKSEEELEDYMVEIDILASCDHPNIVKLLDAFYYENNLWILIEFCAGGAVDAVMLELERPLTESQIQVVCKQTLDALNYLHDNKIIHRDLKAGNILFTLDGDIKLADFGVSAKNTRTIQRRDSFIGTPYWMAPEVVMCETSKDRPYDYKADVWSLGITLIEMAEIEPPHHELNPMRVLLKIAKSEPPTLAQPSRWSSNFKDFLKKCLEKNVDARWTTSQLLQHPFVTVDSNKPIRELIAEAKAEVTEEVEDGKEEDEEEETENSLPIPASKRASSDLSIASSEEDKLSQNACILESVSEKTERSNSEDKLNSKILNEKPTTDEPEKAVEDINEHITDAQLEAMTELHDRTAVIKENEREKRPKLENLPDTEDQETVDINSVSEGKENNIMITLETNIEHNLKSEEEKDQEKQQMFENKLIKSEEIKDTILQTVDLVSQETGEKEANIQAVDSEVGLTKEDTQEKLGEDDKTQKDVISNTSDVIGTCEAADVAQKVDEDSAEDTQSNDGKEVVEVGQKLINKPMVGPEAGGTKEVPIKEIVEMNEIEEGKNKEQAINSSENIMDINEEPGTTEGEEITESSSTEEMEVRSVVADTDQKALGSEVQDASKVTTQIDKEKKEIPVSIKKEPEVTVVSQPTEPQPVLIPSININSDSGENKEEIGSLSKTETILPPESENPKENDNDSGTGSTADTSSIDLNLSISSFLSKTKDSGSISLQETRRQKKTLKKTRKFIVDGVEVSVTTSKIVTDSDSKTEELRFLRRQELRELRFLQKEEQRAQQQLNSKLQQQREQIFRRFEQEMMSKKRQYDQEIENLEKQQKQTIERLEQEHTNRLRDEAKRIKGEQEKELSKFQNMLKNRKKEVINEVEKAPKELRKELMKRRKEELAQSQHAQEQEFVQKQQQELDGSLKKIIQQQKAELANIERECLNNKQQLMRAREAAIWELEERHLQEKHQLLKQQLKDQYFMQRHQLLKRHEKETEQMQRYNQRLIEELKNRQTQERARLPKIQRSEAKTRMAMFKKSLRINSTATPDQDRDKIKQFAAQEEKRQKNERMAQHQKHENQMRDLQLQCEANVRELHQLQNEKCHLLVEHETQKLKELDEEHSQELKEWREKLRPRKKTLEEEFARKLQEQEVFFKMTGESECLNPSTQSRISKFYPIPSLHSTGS

UniProt Q99683 = target: T3, UniProt Q99683
T3 sequence (whole entry): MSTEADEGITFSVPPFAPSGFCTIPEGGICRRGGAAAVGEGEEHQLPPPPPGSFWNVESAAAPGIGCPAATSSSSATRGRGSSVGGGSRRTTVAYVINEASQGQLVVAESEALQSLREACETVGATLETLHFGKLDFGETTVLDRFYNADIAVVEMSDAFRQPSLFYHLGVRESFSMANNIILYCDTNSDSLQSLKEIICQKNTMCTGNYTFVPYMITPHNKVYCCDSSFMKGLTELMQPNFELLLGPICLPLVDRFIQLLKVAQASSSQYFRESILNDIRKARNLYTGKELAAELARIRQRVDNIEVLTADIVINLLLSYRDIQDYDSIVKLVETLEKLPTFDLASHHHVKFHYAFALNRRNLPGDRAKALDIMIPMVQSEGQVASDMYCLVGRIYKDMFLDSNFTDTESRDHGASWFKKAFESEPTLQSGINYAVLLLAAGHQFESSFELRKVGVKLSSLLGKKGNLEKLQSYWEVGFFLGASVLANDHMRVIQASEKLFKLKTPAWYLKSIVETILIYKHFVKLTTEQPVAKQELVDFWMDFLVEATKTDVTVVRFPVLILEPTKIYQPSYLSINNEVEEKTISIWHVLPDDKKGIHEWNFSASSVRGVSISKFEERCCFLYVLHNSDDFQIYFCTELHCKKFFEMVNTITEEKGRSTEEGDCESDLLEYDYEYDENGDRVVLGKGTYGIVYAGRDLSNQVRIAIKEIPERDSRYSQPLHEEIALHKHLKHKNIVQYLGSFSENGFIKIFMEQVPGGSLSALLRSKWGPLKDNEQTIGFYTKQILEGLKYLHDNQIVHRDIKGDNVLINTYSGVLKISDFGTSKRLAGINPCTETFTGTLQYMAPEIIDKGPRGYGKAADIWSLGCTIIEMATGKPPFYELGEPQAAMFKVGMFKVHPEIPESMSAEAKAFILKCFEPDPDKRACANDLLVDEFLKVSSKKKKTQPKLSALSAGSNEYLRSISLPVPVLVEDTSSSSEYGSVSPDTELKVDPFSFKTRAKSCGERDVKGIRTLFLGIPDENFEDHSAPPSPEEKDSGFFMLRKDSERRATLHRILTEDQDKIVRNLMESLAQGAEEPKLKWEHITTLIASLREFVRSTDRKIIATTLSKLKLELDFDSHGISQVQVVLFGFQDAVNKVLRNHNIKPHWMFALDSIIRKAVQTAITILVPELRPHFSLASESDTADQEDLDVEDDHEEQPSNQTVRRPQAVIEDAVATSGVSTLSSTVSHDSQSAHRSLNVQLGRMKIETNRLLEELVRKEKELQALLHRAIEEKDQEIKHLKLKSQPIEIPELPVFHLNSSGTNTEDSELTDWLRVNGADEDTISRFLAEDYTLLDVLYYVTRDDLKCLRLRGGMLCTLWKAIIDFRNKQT

UniProt P27448 = target: UniProt P27448
Chain of UniProt P27448 (P27448 whole entry, looked up): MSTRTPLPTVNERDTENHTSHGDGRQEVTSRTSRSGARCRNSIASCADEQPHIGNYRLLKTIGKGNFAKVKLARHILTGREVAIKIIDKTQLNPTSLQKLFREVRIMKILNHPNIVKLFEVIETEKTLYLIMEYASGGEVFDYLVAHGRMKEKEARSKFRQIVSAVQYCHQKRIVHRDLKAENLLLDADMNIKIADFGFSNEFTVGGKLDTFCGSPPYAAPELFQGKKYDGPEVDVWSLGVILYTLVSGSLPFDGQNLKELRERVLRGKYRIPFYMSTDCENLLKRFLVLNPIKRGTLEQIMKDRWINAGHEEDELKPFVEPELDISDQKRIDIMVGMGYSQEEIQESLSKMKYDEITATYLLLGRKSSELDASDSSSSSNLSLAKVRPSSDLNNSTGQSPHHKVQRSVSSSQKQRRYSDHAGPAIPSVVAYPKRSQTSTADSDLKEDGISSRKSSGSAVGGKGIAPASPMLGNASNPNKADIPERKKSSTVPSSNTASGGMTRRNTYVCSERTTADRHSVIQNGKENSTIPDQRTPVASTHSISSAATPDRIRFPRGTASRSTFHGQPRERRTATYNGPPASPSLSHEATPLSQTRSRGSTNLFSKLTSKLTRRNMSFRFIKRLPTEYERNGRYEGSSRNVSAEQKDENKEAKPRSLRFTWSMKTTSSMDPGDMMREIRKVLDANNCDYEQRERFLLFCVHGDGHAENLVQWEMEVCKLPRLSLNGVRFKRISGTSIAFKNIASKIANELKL

Measured: pIC50

CCc1cnn2c(NCc3ccc[n+]([O-])c3)cc(N3CCCC[C@H]3CCO)nc12 [dinaciclib]
< 4.52: all assays above
